Columns and labels:
SK-MEL-2 = experiment: NCI single dose (10 µM) SRB screen; assay type: cell-based, human; details: melanoma, 48 h
SR = experiment: NCI single dose (10 µM) SRB screen; assay type: cell-based, human; details: leukaemia, 48 h
TK-10 = experiment: NCI single dose (10 µM) SRB screen; assay type: cell-based, human; details: renal cancer, 48 h
MDA-MB-435 = experiment: NCI single dose (10 µM) SRB screen; assay type: cell-based, human; details: melanoma, 48 h
MDA-MB-468 = experiment: NCI single dose (10 µM) SRB screen; assay type: cell-based, human; details: breast cancer, 48 h
SNB-19 = experiment: NCI single dose (10 µM) SRB screen; assay type: cell-based, human; details: CNS cancer, 48 h
HCC-2998 = experiment: NCI single dose (10 µM) SRB screen; assay type: cell-based, human; details: colon cancer, 48 h
NCI-H460 = experiment: NCI single dose (10 µM) SRB screen; assay type: cell-based, human; details: non-small cell lung cancer, 48 h
A498 = experiment: NCI single dose (10 µM) SRB screen; assay type: cell-based, human; details: renal cancer, 48 h
MALME-3M = experiment: NCI single dose (10 µM) SRB screen; assay type: cell-based, human; details: melanoma, 48 h
SN12C = experiment: NCI single dose (10 µM) SRB screen; assay type: cell-based, human; details: renal cancer, 48 h
HL-60(TB) = experiment: NCI single dose (10 µM) SRB screen; assay type: cell-based, human; details: leukaemia, 48 h
Pseudomonas aeruginosa = experiment: Agar well diffusion method
SNB-75 = experiment: NCI single dose (10 µM) SRB screen; assay type: cell-based, human; details: CNS cancer, 48 h
HT29 = experiment: NCI single dose (10 µM) SRB screen; assay type: cell-based, human; details: colon cancer, 48 h
NCI-H23 = experiment: NCI single dose (10 µM) SRB screen; assay type: cell-based, human; details: non-small cell lung cancer, 48 h
M14 = experiment: NCI single dose (10 µM) SRB screen; assay type: cell-based, human; details: melanoma, 48 h
EKVX = experiment: NCI single dose (10 µM) SRB screen; assay type: cell-based, human; details: non-small cell lung cancer, 48 h
SF-268 = experiment: NCI single dose (10 µM) SRB screen; assay type: cell-based, human; details: CNS cancer, 48 h
HCT-15 = experiment: NCI single dose (10 µM) SRB screen; assay type: cell-based, human; details: colon cancer, 48 h
SF-295 = experiment: NCI single dose (10 µM) SRB screen; assay type: cell-based, human; details: CNS cancer, 48 h
NCI/ADR-RES = experiment: NCI single dose (10 µM) SRB screen; assay type: cell-based, human; details: ovarian cancer, 48 h
MDA-MB-231 = experiment: NCI single dose (10 µM) SRB screen; assay type: cell-based, human; details: breast cancer, 48 h
ACHN = experiment: NCI single dose (10 µM) SRB screen; assay type: cell-based, human; details: renal cancer, 48 h
MOLT-4 = experiment: NCI single dose (10 µM) SRB screen; assay type: cell-based, human; details: leukaemia, 48 h
HOP-92 = experiment: NCI single dose (10 µM) SRB screen; assay type: cell-based, human; details: non-small cell lung cancer, 48 h
T-47D = experiment: NCI single dose (10 µM) SRB screen; assay type: cell-based, human; details: breast cancer, 48 h
Staphylococcus aureus = experiment: Agar well diffusion method
NCI-H322M = experiment: NCI single dose (10 µM) SRB screen; assay type: cell-based; details: non-small cell lung cancer, 48 h
RPMI-8226 = experiment: NCI single dose (10 µM) SRB screen; assay type: cell-based, human; details: leukaemia, 48 h
UACC-257 = experiment: NCI single dose (10 µM) SRB screen; assay type: cell-based, human; details: melanoma, 48 h
Escherichia coli = experiment: Agar well diffusion method; details: relative to ciprofloxacin
IGROV1 = experiment: NCI single dose (10 µM) SRB screen; assay type: cell-based, human; details: ovarian cancer, 48 h
NCI-H522 = experiment: NCI single dose (10 µM) SRB screen; assay type: cell-based, human; details: non-small cell lung cancer, 48 h
HOP-62 = experiment: NCI single dose (10 µM) SRB screen; assay type: cell-based, human; details: non-small cell lung cancer, 48 h
786-0 = experiment: NCI single dose (10 µM) SRB screen; assay type: cell-based, human; details: renal cancer, 48 h
UO-31 = experiment: NCI single dose (10 µM) SRB screen; assay type: cell-based, human; details: renal cancer, 48 h
SK-MEL-28 = experiment: NCI single dose (10 µM) SRB screen; assay type: cell-based, human; details: melanoma, 48 h
SK-OV-3 = experiment: NCI single dose (10 µM) SRB screen; assay type: cell-based, human; details: ovarian cancer, 48 h
OVCAR-5 = experiment: NCI single dose (10 µM) SRB screen; assay type: cell-based, human; details: ovarian cancer, 48 h
UACC-62 = experiment: NCI single dose (10 µM) SRB screen; assay type: cell-based, human; details: melanoma, 48 h
K-562 = experiment: NCI single dose (10 µM) SRB screen; assay type: cell-based, human; details: leukaemia, 48 h
Bacillus subtilis = experiment: Agar well diffusion method
SF-539 = experiment: NCI single dose (10 µM) SRB screen; assay type: cell-based, human; details: CNS cancer, 48 h
KM12 = experiment: NCI single dose (10 µM) SRB screen; assay type: cell-based, human; details: colon cancer, 48 h
CCRF-CEM = experiment: NCI single dose (10 µM) SRB screen; assay type: cell-based, human; details: leukaemia, 48 h
COLO 205 = experiment: NCI single dose (10 µM) SRB screen; assay type: cell-based, human; details: colon cancer, 48 h
DU-145 = experiment: NCI single dose (10 µM) SRB screen; assay type: cell-based, human; details: prostate cancer, 48 h
HCT-116 = experiment: NCI single dose (10 µM) SRB screen; assay type: cell-based, human; details: colon cancer, 48 h
U251 = experiment: NCI single dose (10 µM) SRB screen; assay type: cell-based, human; details: CNS cancer, 48 h
CAKI-1 = experiment: NCI single dose (10 µM) SRB screen; assay type: cell-based, human; details: renal cancer, 48 h
PC-3 = experiment: NCI single dose (10 µM) SRB screen; assay type: cell-based, human; details: prostate cancer, 48 h
A549/ATCC = experiment: NCI single dose (10 µM) SRB screen; assay type: cell-based, human; details: non-small cell lung cancer, 48 h

In the case of CCOC(=O)C1=C(C)NC(C)=C(C(=O)OC(C)C)C1c1cccc(C#N)c1 (racemic) [Compound 2h, (±)-3-Ethyl 5-isopropyl 4-(3-cyanophenyl)-2,6-dimethyl-1,4-dihydropyridine-3,5-dicarboxylate], the “GI% SK-MEL-2” value (SK-MEL-2) is reported as “– (Only GI% ≥ 10 are shown)”, the “GI% SR” value (SR) is reported as “– (Only GI% ≥ 10 are shown)” and the “GI% TK-10” value (TK-10) is reported as “– (Only GI% ≥ 10 are shown)”. For the same compound, the “GI% MDA-MB-435” value (MDA-MB-435) was “– (Only GI% ≥ 10 are shown)”, the “GI% MDA-MB-468” value (MDA-MB-468) was 20% and the “GI% SNB-19” value (SNB-19) was “– (Only GI% ≥ 10 are shown)”. For the same compound, the “GI% HCC-2998” value (HCC-2998) was “– (Only GI% ≥ 10 are shown)”, the “GI% NCI-H460” value (NCI-H460) was “– (Only GI% ≥ 10 are shown)” and the “GI% A498” value (A498) was 16%. For the same compound, the “GI% MALME-3M” value (MALME-3M) was “– (Only GI% ≥ 10 are shown)”, the “GI% SN12C” value (SN12C) was “– (Only GI% ≥ 10 are shown)” and the “GI% HL-60(TB)” value (HL-60(TB)) was “– (Only GI% ≥ 10 are shown)”. The zone of inhibition at 1000 µg/mL (Pseudomonas aeruginosa; Pseudomonas aeruginosa, 24 h, read-out: Diameter of inhibition zone, P. aeruginosa) was 10 mm, the “% activity index, P. aeruginosa” value (Pseudomonas aeruginosa; relative to ciprofloxacin) was 43.5% and the “GI% SNB-75” value (SNB-75) was 15%. For the same compound, the “GI% HT29” value (HT29) was “– (Only GI% ≥ 10 are shown)”, the “GI% NCI-H23” value (NCI-H23) was “– (Only GI% ≥ 10 are shown)” and the “GI% M14” value (M14) was “– (Only GI% ≥ 10 are shown)”. The “GI% EKVX” value (EKVX) was “– (Only GI% ≥ 10 are shown)”, the “GI% SF-268” value (SF-268) was “– (Only GI% ≥ 10 are shown)” and the “GI% HCT-15” value (HCT-15) was “– (Only GI% ≥ 10 are shown)”. The “GI% SF-295” value (SF-295) was “– (Only GI% ≥ 10 are shown)”, the “GI% NCI/ADR-RES” value (NCI/ADR-RES) was “– (Only GI% ≥ 10 are shown)” and the “GI% MDA-MB-231” value (MDA-MB-231) was “– (Only GI% ≥ 10 are shown)”. The “GI% ACHN” value (ACHN) was “– (Only GI% ≥ 10 are shown)”, the “GI% MOLT-4” value (MOLT-4) was 11% and the “GI% HOP-92” value (HOP-92) was “– (Only GI% ≥ 10 are shown)”. The “GI% T-47D” value (T-47D) was “– (Only GI% ≥ 10 are shown)”, the zone of inhibition at 1000 µg/mL (Staphylococcus aureus; Staphylococcus aureus, 24 h, read-out: Diameter of inhibition zone, S. aureus) was 11 mm and the “% activity index, S. aureus” value (Staphylococcus aureus; relative to ciprofloxacin) was 45.8%. For the same compound, the “GI% NCI-H322M” value (NCI-H322M) was “– (Only GI% ≥ 10 are shown)”, the “GI% RPMI-8226” value (RPMI-8226) was “– (Only GI% ≥ 10 are shown)” and the “GI% UACC-257” value (UACC-257) was “– (Only GI% ≥ 10 are shown)”. The “% activity index, E. coli” value (Escherichia coli) was “– (Values below 25 are of limited value and not shown as they refer either to inactive or non-diffusing compounds)”, the “GI% IGROV1” value (IGROV1) was “– (Only GI% ≥ 10 are shown)” and the “GI% NCI-H522” value (NCI-H522) was “– (Only GI% ≥ 10 are shown)”. For the same compound, the “GI% HOP-62” value (HOP-62) was “– (Only GI% ≥ 10 are shown)”, the “GI% 786-0” value (786-0) was “– (Only GI% ≥ 10 are shown)” and the “GI% UO-31” value (UO-31) was “– (Only GI% ≥ 10 are shown)”. For the same compound, the “GI% SK-MEL-28” value (SK-MEL-28) was “– (Only GI% ≥ 10 are shown)”, the “GI% SK-OV-3” value (SK-OV-3) was “– (Only GI% ≥ 10 are shown)” and the “GI% OVCAR-5” value (OVCAR-5) was “– (Only GI% ≥ 10 are shown)”. The “GI% UACC-62” value (UACC-62) was “– (Only GI% ≥ 10 are shown)”, the “GI% K-562” value (K-562) was “– (Only GI% ≥ 10 are shown)” and the zone of inhibition at 1000 µg/mL (Bacillus subtilis; Bacillus subtilis, 24 h, read-out: Diameter of inhibition zone, B. subtilis) was 8 mm. For the same compound, the “% activity index, B. subtilis” value (Bacillus subtilis; relative to ciprofloxacin) was 34.8%, the “GI% SF-539” value (SF-539) was “– (Only GI% ≥ 10 are shown)” and the “GI% KM12” value (KM12) was “– (Only GI% ≥ 10 are shown)”. For the same compound, the “GI% CCRF-CEM” value (CCRF-CEM) was “– (Only GI% ≥ 10 are shown)”, the “GI% COLO 205” value (COLO 205) was “– (Only GI% ≥ 10 are shown)” and the “GI% DU-145” value (DU-145) was “– (Only GI% ≥ 10 are shown)”. For the same compound, the “GI% HCT-116” value (HCT-116) was “– (Only GI% ≥ 10 are shown)”, the “GI% U251” value (U251) was “– (Only GI% ≥ 10 are shown)” and the “GI% CAKI-1” value (CAKI-1) was 15%. The “GI% PC-3” value (PC-3) was 12% and the “GI% A549/ATCC” value (A549/ATCC) was “– (Only GI% ≥ 10 are shown)”.

Source: article PMC9481151, “Discovery of new symmetrical and asymmetrical nitrile-containing 1,4-dihydropyridine derivatives as dual kinases and P-glycoprotein inhibitors: synthesis, in vitro assays, and in silico studies” (Journal of Enzyme Inhibition and Medicinal Chemistry, 2022)
